# From patent US20040019066A1, “Methionine salvage pathway in bacillus” (priority 2002, published 2004)
# “Also recorded” adds a separate entry of the source.
# Legend:
# [1] = test system: B. subtilis 168 and mtn region mutants; assay: Growth on MTR as sole sulfur source (ED1 minimal medium plates); assay type: cell-based, Bacillus subtilis
# Method: Panel A: ED1 minimal mediums plate with 1 mM IPTG containing 0.2 mM MTR as sole sulfur source WT, metI (BSIP 1143), mtnS (BSHP7010), mtnK (BFS1850), mtnU (BFS1851), mtnV (BSHP7020), mtnW (BSHP7014), mtnX (BFS1852), mtnY (BSHP7016) and mtnZ (BFS 1853) were inoculated for over-night growth at 37° C. No growth of mtnS, mtnK, mtnW and mtnY is represented by an example of absence of growth around a disc with MTR of mtnY mutant in panel B. Normal growth of […] and mtnX is represented by an example of normal growth around a disc with MTR of mtnV mutant in panel C.
# Using the collection of mutants constructed during the Bacillus subtilis functional analysis, program (http://locus.jouy.inra.fr/cgi-bin/genmic/madbase/progs/madbase.oper] and http://bacillus.genome.adjp, [9]) and constructing mutants which were not available in the collection, we tested all genes in the region for their phenotype of growth on MTR as the sole sulfur source.
# Bacterial strains and plasmids, and growth media: E. coli and B. subtilis strains as well as plasmids used in this work are listed in Table 3. E. coli TG1 and XL1-Blue were used for cloning experiments (TG1 for single cross-over recombination and XL1-Blue for double cross-over recombination). Despite the fact that there are no public regulations yet in this domain in China, all experiments were performed in accordance with the European regulation requirements concerning the contained use of Genetically Modified Organisms of Group-I (French agreement N^o 2735). E. coli and B. subtilis were grown in Luria-Bertani (LB) medium and in ED minimal medium: K2HPO4, 8 mM; KH2PO4, 4,4 mM; glucose, 27 mM; Na3-citrate, 0.3 mM; L-glutamine, 15 mM; L-tryptophan, 0.244 mM; ferric citrate, 33.5 μM; MgSO4, 2 mM; MgCl2, 0.61 mM; CaCl2, 49.5 μM; FeCl3, 49.9 μM; MnCl2, 5.05 μM; ZnCl2, 12.4 μM; CuCl2, 2.52 μM; CoCl2, 2.5 μM; Na2MoO4, 2.48 μM. When methionine was used as sulfur source (1 mM), MgSO4 was replaced by MgCl2 at the same magnesium concentration (2 mM). For assaying growth on plates, either the MgSO4 containing medium or the sulfur-free basal medium was used (MgSO4 was replaced by MgCl2 as described above). In the latter case, 10 [μl of the sulfur source under investigation was applicated onto paper discs (MTR, 200 mM stock solution and methionine, 100 mM stock solution) deposited at the center of the plate, after bacteria had been uniformly spread at the surface of the plate, and growth was measured around the disK. In some cases MTR was used directly in the plate as sulfur source (0.2 mM). When necessary IPTG was included at 1 mM concentration. When xylose was added to the medium (0.5%) in order to trigger the expression of genes under the control of Pxyl inducible promoter, fructose was used as carbon source instead of glucose. LB and ED plates were prepared by addition of 17 g/liter Bacto agar or Agar Noble (Difco), respectively, to the medium. When included, antibiotics were added to the following concentrations: ampicillin, 100 mg/liter; chloramphenicol, 50 mg/liter; spectinomycin, 100 mg/liter; erythromycin plus lincomycin, 1 mg/liter and 25 mg/liter. Bacteria were grown at 37° C. The optical density (OD) of bacterial cultures was measured at 600 nm. MTR was prepared from MTA (Sigma, D5011) by acid hydrolysis as described by Schlenk. 3-fluoromethythiorybose (3F-MM, 5-thio-5-5-S-trifluoromethyl-D-ribose) was synthesised accordingly to [6, 20]. When added directly to the ED1 medium plate, 3F-MTR was used at 100 mg/liter concentration and when applicated onto paper discs 100 mM stock solution was used. For anaerobic growth on plates, the Anaerocult A (Merck) within an anaerobiosis jar for CO2 production with simultanious O2 absorbtion was used. Sulfur-free ED1 minimal medium plates were supplemented to 1% glucose final concentration and with 0.5% sodium pyruvate and 20 mM sodium nitrate as electron acceptor. Plates were incubated at 37° C. for 4 days with the sulfur source under investigation.
# [2] = test system: B. subtilis 168 and mtn region mutants; conditions: Bacillus subtilis; reference [5]; cited from earlier work
compound,measurement,setting,value
"CSC[C@@H](O)[C@@H](O)[C@@H](O)C=O [MTR, methylthioribose]",Growth on MTR as sole sulfur source,"[1]; Wild type strain 168, + O2, four days",normal growth after four days
same,Growth on MTR as sole sulfur source,"[1]; Wild type strain 168, anaerobic growth, nitrate as electron acceptor, four days (table row printed '+ O2')",failed to grow; also recorded: no growth after four days
same,Use of MTR as the methionine source,[1]; methionine auxotrophs,can be used as the methionine source
same,Growth on MTR as sole sulfur source,"[1]; mtnK mutant, strain BFS1850",no growth; also recorded: failed to grow
same,Growth on MTR as sole sulfur source,"[1]; mtnS mutant, strain BSHP7010",no growth; also recorded: failed to grow
same,Growth on MTR as sole sulfur source,"[1]; mtnU mutant, strain BFS1851",failed to grow; also recorded: no growth (numerous revertants)
same,Growth on MTR as sole sulfur source,"[1]; mtnV mutant, strain BSHP7020",normal growth; also recorded: no visible effect on growth
same,Growth on MTR,[1]; mtnW inactivated with a polar effect on the distal genes,lack of growth
same,Growth on MTR as sole sulfur source,"[1]; mtnW mutant, strain BSHP7014 (downstream genes expressed)",no growth; also recorded: failed to grow
same,Growth on MTR as sole sulfur source,"[1]; mtnX mutant, strain BFS1852, IPTG added",normal growth; also recorded: recovered its growth properties
same,Growth on MTR as sole sulfur source,"[1]; mtnY mutant, strain BSHP7016",no growth; also recorded: failed to grow
same,Growth on MTR as sole sulfur source,"[1]; mtnZ mutant, strain BFS1853","partial growth; also recorded: very weak (residual) growth; also recorded: very weak, residual growth; also recorded: weak residual growth"
same,MTR as sulfur source,[2],excellent sulfur source
